“Also recorded” adds a separate entry of the source.
Legend:
[1] = Oral pharmacokinetics in rat; type: in vivo, Wistar(Han) rats; conditions: oral dose 20 μmol/kg of citrate salt 1, mean values
Description: The pharmacokinetics of the test compound following single intravenous (IV) or oral (PO) doses were examined in • female BALB/c mice (average weight: 25 g) • male Wistar(Han) rats (average weight: 260 g) • male and female Göttingen Minipigs (average weight: 24 kg) • male beagle dogs (average weight: 15 kg) All non-rodent species were fasted overnight prior to dosing, while mice and rats had food and water available ad libitum. The p.o. dose of the compound was usually administered as suspension in 0.5% Natrosol or as a 0.5% Natrosol/0.015% Tween 80 suspension. For i.v. dosing purposes, the doses were applied as a solution in 0.9% NaCL, or as a solution containing 9.1% HP-beta Cyclodextrin in water.
Blood was collected by venous sampling and soaking of the blood in EDTA coated tubes. Samples were collected for up to 48 h after administration of the test compound. Plasma was then separated by centrifugation (5 min by approximately 9000 g at 4° C.). For determination of the test compound, plasma was transferred into PCR plates. All samples were stored at approximately −20° C. until bioanalytics. The test compound concentrations in plasma were determined by HPLC MS/MS. The lower limit of quantification was between 0.5 nmol/L and 1 nmol/L.

[2] = Solubility, automated shake flask method with UV quantitation; type: physicochemical; conditions: for solubility at 2 h / solubility at 4 h / solubility at 6 h: thermodynamic from solid, room temperature
Method: Solubility was determined using an automated shake flask method (at room temperature) and quantitation of the dissolved drug substance was determined by UV-spectroscopy within this automated setup.

[3] = X-ray powder diffraction: crystallinity and polymorphism; type: physicochemical; conditions: for indications for polymorphism: several crystallization experiments
Description: X-ray powder diagrams were generated using a STOE-STADI P-diffractometer in transmission mode fitted with a MYTHEN-detector and a Cu-anode as X-ray source with monochromatic CuKα1 radiation (λ=1.54056 Å, 40 kV, 40 mA).

[4] = Dynamic vapour sorption (sorption isotherms, water uptake); type: physicochemical; conditions: for hygroscopic behavior: uptake of water: 25° C., citrate
Description: Sorption isotherms were generated using an IGAsorp water sorption monitor from Hiden Isochema. […] For BR salt form only: Sorption isotherms were registered on a DVS-1 water sorption monitor from Surface Measurement Systems.

[5] = ThermoGravimetry (loss on drying); type: physicochemical; conditions: TG
Description: Thermal gravimetry data were collected with a TG instrument from the Q-series of TA Instruments. This method measures weight changes in a material as a function of temperature under a controlled atmosphere.

[6] = male, Wistar(Han), plasma, 20 umol/kg
[7] = listed as Citrate salt, citrate

Work on `CO[C@H]1COCC[C@H]1NC1CCN(C(=O)c2ncnc(NC[C@H]3CCC[C@@H](c4ccc(C)cc4)O3)c2C)CC1.O=C(O)CC(O)(CC(=O)O)C(=O)O` [citrate salt 1, (4-((3R,4R)-3-methoxytetrahydro-pyran-4-ylamino)piperidin-1-yl)(5-methyl-6-(((2R,6S)-6-(p-tolyl)tetrahydro-2H-pyran-2-yl)methylamino)pyrimidin-4-yl)methanone citrate] yielded an AUC(0-inf) [1, 6] of 1.71 µM·h, a Cmax [1, 6] of 454 nM and a Tmax [1, 6] of 1.08 h. For the same molecule, the MRTtot [1] was 3.3 h, the solubility at 2 h ([2]; Sörensen buffer, aqueous buffer, Sörensen pH 10, 2 h) was > 1000 µg/mL and the solubility at 4 h ([2]; Sörensen buffer, aqueous buffer, Sörensen pH 10, 4 h) was > 1000 µg/mL. For the same molecule, the solubility at 6 h ([2]; Sörensen buffer, aqueous buffer, Sörensen pH 10, 6 h) was > 1000 µg/mL, the “Solubility in aqueous media (in words)” value ([2]; acidic, neutral and basic aqueous media) was “highly soluble” and the solubility at 2 h ([2]; aqueous buffer, 0.1N NaOH, 2 h) was > 1000 µg/mL. For the same molecule, the solubility at 4 h ([2]; aqueous buffer, 0.1N NaOH, 4 h) was > 1000 µg/mL, the solubility at 6 h ([2]; aqueous buffer, 0.1N NaOH, 6 h) was > 1000 µg/mL and the solubility at 2 h ([2]; aqueous buffer, KH2PO4-buffer pH 7.4, 2 h) was > 1000 µg/mL. The solubility at 4 h ([2]; aqueous buffer, KH2PO4-buffer pH 7.4, 4 h) was > 1000 µg/mL, the solubility at 6 h ([2]; aqueous buffer, KH2PO4-buffer pH 7.4, 6 h) was > 1000 µg/mL and the solubility at 2 h ([2]; aqueous buffer, McIlvaine buffer pH 2.2, 2 h) was > 1000 µg/mL. The solubility at 4 h ([2]; aqueous buffer, McIlvaine buffer pH 2.2, 4 h) was > 1000 µg/mL, the solubility at 6 h ([2]; aqueous buffer, McIlvaine buffer pH 2.2, 6 h) was > 1000 µg/mL and the solubility at 2 h ([2]; aqueous buffer, McIlvaine buffer pH 3.0, 2 h) was > 1000 µg/mL. The solubility at 4 h ([2]; aqueous buffer, McIlvaine buffer pH 3.0, 4 h) was > 1000 µg/mL, the solubility at 6 h ([2]; aqueous buffer, McIlvaine buffer pH 3.0, 6 h) was > 1000 µg/mL and the solubility at 2 h ([2]; aqueous buffer, McIlvaine buffer pH 4.0, 2 h) was > 1000 µg/mL. The solubility at 4 h ([2]; aqueous buffer, McIlvaine buffer pH 4.0, 4 h) was > 1000 µg/mL, the solubility at 6 h ([2]; aqueous buffer, McIlvaine buffer pH 4.0, 6 h) was > 1000 µg/mL and the solubility at 4 h ([2]; aqueous buffer, McIlvaine buffer pH 4.5, 4 h) was > 1000 µg/mL. For the same molecule, the solubility at 6 h ([2]; aqueous buffer, McIlvaine buffer pH 4.5, 6 h) was > 1000 µg/mL, the solubility at 2 h ([2]; aqueous buffer, McIlvaine buffer pH 5.0, 2 h) was > 1000 µg/mL and the solubility at 4 h ([2]; aqueous buffer, McIlvaine buffer pH 5.0, 4 h) was > 1000 µg/mL. For the same molecule, the solubility at 6 h ([2]; aqueous buffer, McIlvaine buffer pH 5.0, 6 h) was > 1000 µg/mL, the solubility at 2 h ([2]; aqueous buffer, McIlvaine buffer pH 6.0, 2 h) was > 1000 µg/mL and the solubility at 4 h ([2]; aqueous buffer, McIlvaine buffer pH 6.0, 4 h) was > 1000 µg/mL. The solubility at 6 h ([2]; aqueous buffer, McIlvaine buffer pH 6.0, 6 h) was > 1000 µg/mL, the solubility at 2 h ([2]; aqueous buffer, McIlvaine buffer pH 6.8, 2 h) was > 1000 µg/mL and the solubility at 4 h ([2]; aqueous buffer, McIlvaine buffer pH 6.8, 4 h) was > 1000 µg/mL. The solubility at 6 h ([2]; aqueous buffer, McIlvaine buffer pH 6.8, 6 h) was > 1000 µg/mL, the solubility at 2 h ([2]; aqueous buffer, McIlvaine buffer pH 7.4, 2 h) was > 1000 µg/mL and the solubility at 4 h ([2]; aqueous buffer, McIlvaine buffer pH 7.4, 4 h) was > 1000 µg/mL. For the same molecule, the solubility at 6 h ([2]; aqueous buffer, McIlvaine buffer pH 7.4, 6 h) was > 1000 µg/mL, the solubility at 2 h ([2]; organic solvent or mixture, EtOH, 2 h) was 9200 µg/mL and the solubility at 4 h ([2]; organic solvent or mixture, EtOH, 4 h) was 9800 µg/mL. The solubility at 6 h ([2]; organic solvent or mixture, EtOH, 6 h) was 10000 µg/mL, the solubility at 2 h ([2]; simulated gastric fluid, 0.01N HCl, 2 h) was > 1000 µg/mL and the solubility at 4 h ([2]; simulated gastric fluid, 0.01N HCl, 4 h) was > 1000 µg/mL. The solubility at 6 h ([2]; simulated gastric fluid, 0.01N HCl, 6 h) was > 1000 µg/mL, the solubility at 2 h ([2]; simulated gastric fluid, 0.1N HCl, 2 h) was > 1000 µg/mL and the solubility at 4 h ([2]; simulated gastric fluid, 0.1N HCl, 4 h) was > 1000 µg/mL. For the same molecule, the solubility at 6 h ([2]; simulated gastric fluid, 0.1N HCl, 6 h) was > 1000 µg/mL, the solubility at 2 h ([2]; Water, 2 h) was > 1000 µg/mL and the solubility at 4 h ([2]; Water, 4 h) was > 1000 µg/mL. The solubility at 6 h ([2]; Water, 6 h) was > 1000 µg/mL, the crystallinity ([3]; listed as Citrate salt 1, citrate) was “highly crystalline” and the crystallinity [3, 7] was “high”. The indications for polymorphism [3, 7] was “no”, the indications for polymorphism ([3]; listed as citrate, citrate) was “Only one crystalline form; also recorded: only one polymorphic form” and the “physical state after sorption experiment / at higher relative humidity” value ([4]; higher relative humidity, other salts starting at 60-70% relative humidity) was “still remains as solid material”. For the same molecule, the “hygroscopic behavior: uptake of water” value ([4]; up to 80% r.h. (humidity range 10-80%)) was 2.6%, the “hygroscopic behavior: uptake of water” value ([4]; up to 80% r.h. (humidity range 10-80%), listed as Citrate salt) was 2.6% and the “hygroscopic behavior: uptake of water” value ([4]; up to 80% r.h. (humidity range 10-80%), listed as citrate) was 2.6%. The “hygroscopic behavior: uptake of water” value ([4]; up to 90% r.h.) was 3.4%, the “hygroscopic behavior: uptake of water” value ([4]; up to 90% r.h., listed as Citrate salt) was 3.4% and the loss on drying [5] was 1.6%.

Reference: US10213428B2, “(4-((3R,4R)-3-methoxytetrahydro-pyran-4-ylamino)piperidin-1-yl)(5-methyl-6-(((2R,6S)-6-(p-tolyl)tetrahydro-2H-pyran-2-yl)methylamino)pyrimidin-4-yl)methanone citrate” (Centrexion Therapeutics Corporation, priority 2015, dated 2019)
